Data published in PubChem BioAssay AID1259407 (Chemical Carcinogenesis Research Information System (CCRIS), 2018).
The source made the active and inactive calls. The rule behind the calls is not given here.

Tested on: CCRIS mutagenicity, Ames/micronucleus/aberration tests
Test: CCRIS mutagenicity studies
Conditions: Test System: AMES SALMONELLA TYPHIMURIUM, Method: PREINCUBATION

Measured: mutagenic call

CCCCC(CC)COCCC#N (stereo not given)
inactive: Strain/Indicator: TA97, Metabolic Activation: HAMSTER, LIVER, S-9, AROCLOR 1254 (10%) inactive; negative | Strain/Indicator: TA97, Metabolic Activation: HAMSTER, LIVER, S-9, AROCLOR 1254 (30%) inactive; negative | Strain/Indicator: TA97, Metabolic Activation: NONE inactive; negative | Strain/Indicator: TA97, Metabolic Activation: RAT, LIVER, S-9, AROCLOR 1254 (10%) inactive; negative | Strain/Indicator: TA97, Metabolic Activation: RAT, LIVER, S-9, AROCLOR 1254 (30%) inactive; negative | Strain/Indicator: TA98, Metabolic Activation: HAMSTER, LIVER, S-9, AROCLOR 1254 (10%) inactive; negative | Strain/Indicator: TA98, Metabolic Activation: HAMSTER, LIVER, S-9, AROCLOR 1254 (30%) inactive; negative | Strain/Indicator: TA98, Metabolic Activation: NONE inactive; negative | Strain/Indicator: TA98, Metabolic Activation: RAT, LIVER, S-9, AROCLOR 1254 (10%) inactive; negative | Strain/Indicator: TA98, Metabolic Activation: RAT, LIVER, S-9, AROCLOR 1254 (30%) inactive; negative | Strain/Indicator: TA100, Metabolic Activation: HAMSTER, LIVER, S-9, AROCLOR 1254 (10%) inactive; negative | Strain/Indicator: TA100, Metabolic Activation: HAMSTER, LIVER, S-9, AROCLOR 1254 (30%) inactive; negative | Strain/Indicator: TA100, Metabolic Activation: NONE inactive; negative | Strain/Indicator: TA100, Metabolic Activation: RAT, LIVER, S-9, AROCLOR 1254 (10%) inactive; negative | Strain/Indicator: TA100, Metabolic Activation: RAT, LIVER, S-9, AROCLOR 1254 (30%) inactive; negative | Strain/Indicator: TA1535, Metabolic Activation: HAMSTER, LIVER, S-9, AROCLOR 1254 (10%) inactive; negative | Strain/Indicator: TA1535, Metabolic Activation: HAMSTER, LIVER, S-9, AROCLOR 1254 (30%) inactive; negative | Strain/Indicator: TA1535, Metabolic Activation: NONE inactive; negative | Strain/Indicator: TA1535, Metabolic Activation: RAT, LIVER, S-9, AROCLOR 1254 (10%) inactive; negative | Strain/Indicator: TA1535, Metabolic Activation: RAT, LIVER, S-9, AROCLOR 1254 (30%) inactive; negative
